{
  "source": "patent US20030228299A1",
  "about": "“Use of antioxidant for treating and/or preventing surface ocular disorders” (priority 2003, published 2003)",
  "key": {"[1]": {"test_system": "corneal and/or conjunctival cells of human origin, in culture", "assay": "Dichlorofluorescein diacetate (DCFH-DA) test of free radicals (hydrogen peroxide)", "type": "cell-based", "conditions": "different concentrations; cells exposed to environmental agents", "experimental": "The tests are performed by cytofluorimetric microtitration in cold light. […] It combines the reproducibility of the microplate methods with the sensitivity of the cytometric methods and has a very broad detection spectrum (280-870 nm). The microplate is scanned by a pencil of light of a given wavelength which illuminates each culture well for less than 0.3 second, thereby limiting any probe extinction phenomenon.\nCorneal and/or conjunctival cells of human origin, in culture, are exposed to various environmental agents in order to induce the release of free radicals. The active compounds of the invention (Cu/Zn SOD or alpha-lipoic acid) are tested at different concentrations on this model. The presence of free radicals in the culture medium is evaluated by the DCFH-DA test (Molecular Probes, Eugene, Oreg., USA) in fluorimetry (λexc.=490 nm−rem.=535 nm, I=4 V). The fluorogenic probe becomes fluorescent when it binds to hydrogen peroxide. The DCFH-DA solution used is a 20 μM solution in Dulbecco-modified minimum essential medium (DMEM). The cultures are then placed for 20 minutes in DMEM containing the probe, after which they are extracted in order to measure the production of hydrogen peroxide. The measurement is made directly on the cells in 96-well plates (Debbasch C. et al. 2000)."}, "[2]": {"test_system": "continuous-line conjunctival cells (Wong-Kilbourne derivative of Chang conjunctiva, clone 1-5C-4, ATCC CCL-20.2)", "assay": "Apoptosis induced by benzalkonium chloride, percentage of cellular DNA in the sub-G1 phase by flux cytofluorimetry", "type": "cell-based", "experimental": "The apoptosis induced by benzalkonium chloride was chosen as the model of superficial eye disorders treated and/or prevented by the invention.\nThis study of apoptosis is conducted using flux cytofluorimetry to compare the percentage of DNA in the sub-G1 phase obtained before and after treatment with the compounds of the invention.\nIn fact, apoptosis is characterized by a fragmentation of the DNA into identical fragments of 200 base pairs. The cells involved in this process therefore have a reduced DNA content.\nThis fragmentation of the DNA can be measured in situ by flux cytofluorimetry using the DNA stain propidium iodide. The reduced DNA appears with a lower fluorescence intensity than that of normal cells. […] The number of normal cells appears in the G1 peak zone. On the other hand, the cells which have a lower fluorescence intensity, i.e. those whose DNA has been fragmented, appear underneath this G1 peak, i.e. in what is called the sub-G1 peak located in the zone marked M1 in FIG. 1.\nApoptosis was induced by adding 0.001% by volume of benzalkonium chloride (BAC), based on the total volume of the sample, to DMEM (Dulbecco-modified Eagle's medium: reference 21885, Gibco BRL Products; enriched with 10% by volume of fetal calf serum, based on the total volume of the sample, and supplemented with […] of streptomycin and 50 IU/ml of penicillin) in which conjunctival cells are cultivated in 6-well plates.\nIn practice, the conjunctival cells were cultivated in the culture medium described above and, at 80% confluence, SOD, alpha-lipoic acid and mixtures thereof were added and incubation was carried out for 45 minutes at 37° C. Benzalkonium chloride was then added to each well. After 15 minutes of incubation, the supernatants in each well were collected in 15 ml tubes; the cells were detached by the action of 0.25% trypsin for 5 minutes at 37° C. and added to their respective supernatants. After centrifugation of the tubes, the cells were washed twice in phosphate buffer. The cellular residue was resuspended in phosphate buffer at a concentration of 1 million cells per milliliter.\nOne hundred microliters of this cellular suspension having a concentration of 10^6/ml were first fixed and permeabilized in one milliliter of absolute ethanol at −20° C. for one hour; then, after washing in phosphate buffer, the DNA was stained with propidium iodide (100 microliters at a concentration of 0.5 mg/ml) for one hour at 4° C. and subsequently analyzed on a cytofluorimeter (Epics XL-MCL, Beckman).\nThe percentage of sub-G1 peaks, i.e. the percentage of fragmented DNA, and consequently the number of conjunctival cells degraded by apoptosis, was measured."}, "[3]": {"test_system": "corneal and conjunctival cells of human origin, in culture", "assay": "Hydroethidine test of superoxide anion production", "type": "cell-based", "conditions": "different concentrations; cells exposed to various aggressors", "experimental": "Corneal and conjunctival cells of human origin, in culture, exposed to various aggressors in order to induce the release of free radicals, are treated with the active compounds of the present invention (Cu/Zn SOD or alpha-lipoic acid) at different concentrations, or are left untreated.\nHydroethidine (Molecular Probes) is a fluorogenic probe which is oxidized to the ethidium cation in the presence of the superoxide anion. This probe becomes fluorescent when it binds to the superoxide anion (λexc.=490 nm−λem.=600 nm, I=6 V). The hydroethidine solution used is a 5 μM solution. The cell cultures are placed for 10 minutes in DMEM containing the probe, after which the cells are extracted in order to measure the production of superoxide anion. The measurement is made in 96-well microplates.\nThe analyses are thus performed on 5000 cells per well, each measurement being repeated six times. The results are expressed in fluorescence units. The mean fluorescence values are calculated in each group and compared by a Mann-Whitney non-parametric U-test."}, "[4]": {"conditions": "after instillation into the eye (De Saint Jean et al. 1999); cited from earlier work"}},
  "data": [
    {"molecule": "O=C(O)CCCCC1CCSS1", "note": "(racemic) [Alpha-lipoic acid, racemic alpha-lipoic acid]", "values": [
      {"measurement": "Deleterious effects of free radicals on corneal and/or conjunctival cells (DCFH-DA test)", "setting": "[1]", "value": "significant dose-related decrease"},
      {"measurement": "Percentage of sub-G1 peaks", "setting": "[2]; alpha-lipoic acid 0.5 μg/ml DMEM + BAC 0.001%", "value": 8, "unit": "%"},
      {"measurement": "Percentage of sub-G1 peaks", "setting": "[2]; alpha-lipoic acid 0.5 μg/ml in DMEM, no BAC (control)", "value": 7, "unit": "%"},
      {"measurement": "Percentage of sub-G1 peaks", "setting": "[2]; alpha-lipoic acid 5 μg/ml DMEM + BAC 0.001%", "value": 13, "unit": "%"},
      {"measurement": "Percentage of sub-G1 peaks", "setting": "[2]; alpha-lipoic acid 5 μg/ml in DMEM, no BAC (control)", "value": 7, "unit": "%"},
      {"measurement": "Production of superoxide anion and cellular degeneration associated with lipid peroxidation (hydroethidine test)", "setting": "[3]", "value": "significant dose-related reduction"}
    ]},
    {"molecule": "benzalkonium chloride [BAC]", "values": [
      {"measurement": "Percentage of sub-G1 peaks", "setting": "[2]; BAC 0.001% alone in DMEM (reference, maximum apoptosis; DMEM control = 10)", "value": 23, "unit": "%"},
      {"measurement": "Half-life", "setting": "[4]", "value": 20, "unit": "h"}
    ]}
  ]
}
